Results from patent US20070287693A1, “Benzamide Derivatives That Act Upon The Glucokinase Enzyme” (priority 2004, published 2007).

Assay: Plasma protein binding by equilibrium dialysis
Type: in vitro ADME
Conditions: rat plasma, 37° C., pH 7.4, read-out: % free in plasma
Procedure: 3) Measurements of Plasma Protein Binding of Compounds
The plasma protein binding of compounds was measured using the equilibrium dialysis technique (W. Lindner et al, J. Chromatography, 1996, 677, 1-28). Compound was dialysed at a concentration of 20 μM for 18 hours at 37° C. with plasma and isotonic phosphate buffer pH 7.4 (1 ml of each in the dialysis cell). A Spectrum® 20-cell equilibrium dialyser was used together with Teflon, semi-micro dialysis cells and Spectra/Por®2 membrane discs with a molecular weight cut off 12-14000 Dalton, 47 mm (supplied by PerBio Science UK Ltd, Tattenhall, Cheshire). Plasma and buffer samples are removed following dialysis and analysed using HPLCUV/MS (high performance liquid chromatography with UV and mass spec detection) to give the % free level in plasma. [drawing 39]

fraction unbound at 18 h, 20 μM: 0.02
SMILES: CC[C@@H](CO)Oc1cc(Oc2ccc(C(=O)N3CCC3)cc2)cc(C(=O)Nc2ccn(C)n2)c1 [Example 13, 3-[4-(azetidin-1-ylcarbonyl)phenoxy]-5-{[(1S)-1-(hydroxymethyl)propyl]oxy}-N-(1-methyl-1H-pyrazol-3-yl)benzamide]
